# Results as given in BindingDB's records for doi:10.1021/cc020096o (University of Anterwerp, 2003).
# What was measured:
# Dipeptidyl peptidase 2 = Dipeptidyl peptidase 2 (Homo sapiens, UniProt Q9UHL4); test: DPP IV Assay; conditions: pH 5.5
# Dipeptidyl peptidase 4 = Dipeptidyl peptidase 4 (Homo sapiens, UniProt P27487); test: DPP IV Assay; conditions: pH 8.3
# Experimental: Inhibitory concentration of the compound against Dipeptidyl peptidase IV (DPP IV) in Homo sapiens (human)is measured
# Dipeptidyl peptidase 4, sequence (P27487 whole entry): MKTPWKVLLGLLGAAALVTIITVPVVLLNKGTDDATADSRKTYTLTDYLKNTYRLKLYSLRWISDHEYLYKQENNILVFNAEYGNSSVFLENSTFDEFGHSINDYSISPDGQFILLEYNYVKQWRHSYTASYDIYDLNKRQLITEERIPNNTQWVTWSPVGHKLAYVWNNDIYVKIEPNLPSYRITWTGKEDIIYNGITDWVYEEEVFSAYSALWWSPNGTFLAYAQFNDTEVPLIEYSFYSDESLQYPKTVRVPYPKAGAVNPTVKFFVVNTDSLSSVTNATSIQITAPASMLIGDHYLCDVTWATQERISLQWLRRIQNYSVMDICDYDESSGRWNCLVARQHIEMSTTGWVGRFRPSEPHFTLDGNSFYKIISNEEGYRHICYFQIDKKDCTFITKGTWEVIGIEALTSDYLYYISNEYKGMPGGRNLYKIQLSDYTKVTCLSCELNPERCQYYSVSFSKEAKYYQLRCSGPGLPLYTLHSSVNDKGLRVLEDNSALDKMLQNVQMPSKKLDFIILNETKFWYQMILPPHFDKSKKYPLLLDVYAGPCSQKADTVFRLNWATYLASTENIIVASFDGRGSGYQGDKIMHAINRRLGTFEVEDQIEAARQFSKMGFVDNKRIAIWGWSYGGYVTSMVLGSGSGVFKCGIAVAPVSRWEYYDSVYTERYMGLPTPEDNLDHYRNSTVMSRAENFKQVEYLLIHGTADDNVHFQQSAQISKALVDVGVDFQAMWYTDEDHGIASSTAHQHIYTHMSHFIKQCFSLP
Structure (SMILES),IC50 (Dipeptidyl peptidase 2),IC50 (Dipeptidyl peptidase 4)
O=C(CNC1CCCC1)NC(c1ccccc1)P(=O)(Oc1ccccc1)Oc1ccccc1 (centres undefined),3.8 µM,> 125 µM
C[C@H](N)C(=O)N1CCCC1P(=O)(Oc1ccccc1)Oc1ccccc1 (some centres undefined),> 1000 µM,> 1000 µM
NC(=O)C[C@H](N)C(=O)N1CCCC1P(=O)(Oc1ccccc1)Oc1ccccc1 (some centres undefined),> 125 µM,
N[C@@H](CC(=O)O)C(=O)N1CCCC1P(=O)(Oc1ccccc1)Oc1ccccc1 (some centres undefined),,> 1000 µM
N[C@@H](Cc1cnc[nH]1)C(=O)N1CCCC1P(=O)(Oc1ccccc1)Oc1ccccc1 (some centres undefined),,326 µM
NCCCC[C@H](N)C(=O)N1CCCC1P(=O)(Oc1ccccc1)Oc1ccccc1 (some centres undefined),> 1000 µM,117 µM
N[C@@H](Cc1ccccc1)C(=O)N1CCCC1P(=O)(Oc1ccccc1)Oc1ccccc1 (some centres undefined),> 1000 µM,142 µM
CC(NC(=O)CN)P(=O)(Oc1ccccc1)Oc1ccccc1 (centres undefined) [2-amino-N-(1-diphenoxyphosphorylethyl)acetamide],> 1000 µM,> 500 µM
"NCC[C@H](N)C(=O)NC(C1CCCCC1)P(=O)(Oc1ccccc1)Oc1ccccc1 (stereo partly drawn) [(2S)-2,4-diamino-N-[cyclohexyl(diphenoxyphosphoryl)methyl]butanamide]",21 µM,1000 µM
"CCCC(NC(=O)[C@@H](N)CCCCN)P(=O)(Oc1ccccc1)Oc1ccccc1 (stereo partly drawn) [(2S)-2,6-diamino-N-(1-diphenoxyphosphorylbutyl)hexanamide]",> 1000 µM,> 1000 µM
"CC(NC(=O)[C@@H](N)CCCCN)P(=O)(Oc1ccccc1)Oc1ccccc1 (stereo partly drawn) [(2S)-2,6-diamino-N-(1-diphenoxyphosphorylethyl)hexanamide]",> 1000 µM,> 500 µM
N[C@@H](CO)C(=O)N1CCCC1P(=O)(Oc1ccccc1)Oc1ccccc1 (stereo partly drawn) [(2S)-2-amino-1-(2-diphenoxyphosphorylpyrrolidin-1-yl)-3-hydroxy-propan-1-one],> 1000 µM,503 µM
CCCC(NC(=O)[C@@H](N)CC1CCCCC1)P(=O)(Oc1ccccc1)Oc1ccccc1 (stereo partly drawn) [(2S)-2-amino-3-cyclohexyl-N-(1-diphenoxyphosphorylbutyl)propanamide],500 µM,> 250 µM
CC(NC(=O)[C@@H](N)CC1CCCCC1)P(=O)(Oc1ccccc1)Oc1ccccc1 (stereo partly drawn) [(2S)-2-amino-3-cyclohexyl-N-(1-diphenoxyphosphorylethyl)propanamide],47 µM,> 500 µM
CCC(NC(=O)[C@@H](N)CC1CCCCC1)P(=O)(Oc1ccccc1)Oc1ccccc1 (stereo partly drawn) [(2S)-2-amino-3-cyclohexyl-N-(1-diphenoxyphosphorylpropyl)propanamide],62 µM,> 1000 µM
N[C@@H](CC1CCCCC1)C(=O)NC(C1CCCCC1)P(=O)(Oc1ccccc1)Oc1ccccc1 (stereo partly drawn) [(2S)-2-amino-3-cyclohexyl-N-[cyclohexyl(diphenoxyphosphoryl)methyl]propanamide],30 µM,> 250 µM
CCC(CC)C(NC(=O)[C@@H](N)C(C)CC)P(=O)(Oc1ccccc1)Oc1ccccc1 (stereo partly drawn) [(2S)-2-amino-N-(1-diphenoxyphosphoryl-2-ethyl-butyl)-3-methyl-pentanamide],> 1000 µM,> 1000 µM
CCC(C)C(NC(=O)[C@@H](N)C(C)CC)P(=O)(Oc1ccccc1)Oc1ccccc1 (stereo partly drawn) [(2S)-2-amino-N-(1-diphenoxyphosphoryl-2-methyl-butyl)-3-methyl-pentanamide],414 µM,> 1000 µM
CCC(C)[C@H](N)C(=O)NC(C(C)C)P(=O)(Oc1ccccc1)Oc1ccccc1 (stereo partly drawn) [(2S)-2-amino-N-(1-diphenoxyphosphoryl-2-methyl-propyl)-3-methyl-pentanamide],1000 µM,> 1000 µM

Structure (SMILES),IC50 (Dipeptidyl peptidase 2),IC50 (Dipeptidyl peptidase 4)
CCC(C)[C@H](N)C(=O)NC(CC(C)C)P(=O)(Oc1ccccc1)Oc1ccccc1 (stereo partly drawn) [(2S)-2-amino-N-(1-diphenoxyphosphoryl-3-methyl-butyl)-3-methyl-pentanamide],286 µM,> 1000 µM
CCCC(NC(=O)[C@@H](N)C(C)CC)P(=O)(Oc1ccccc1)Oc1ccccc1 (stereo partly drawn) [(2S)-2-amino-N-(1-diphenoxyphosphorylbutyl)-3-methyl-pentanamide],1000 µM,> 1000 µM
CC(NC(=O)[C@@H](N)Cc1cnc[nH]1)P(=O)(Oc1ccccc1)Oc1ccccc1 (stereo partly drawn) [(2S)-2-amino-N-(1-diphenoxyphosphorylethyl)-3-(1H-imidazol-4-yl)propanamide],> 500 µM,> 500 µM
CC(NC(=O)[C@@H](N)Cc1ccc(O)cc1)P(=O)(Oc1ccccc1)Oc1ccccc1 (stereo partly drawn) [(2S)-2-amino-N-(1-diphenoxyphosphorylethyl)-3-(4-hydroxyphenyl)propanamide],> 500 µM,> 500 µM
CC(NC(=O)[C@@H](N)CO)P(=O)(Oc1ccccc1)Oc1ccccc1 (stereo partly drawn) [(2S)-2-amino-N-(1-diphenoxyphosphorylethyl)-3-hydroxy-propanamide],> 1000 µM,> 500 µM
CC(C)[C@H](N)C(=O)NC(C)P(=O)(Oc1ccccc1)Oc1ccccc1 (stereo partly drawn) [(2S)-2-amino-N-(1-diphenoxyphosphorylethyl)-3-methyl-butanamide],< 1000 µM,> 500 µM
CCC(C)[C@H](N)C(=O)NC(C)P(=O)(Oc1ccccc1)Oc1ccccc1 (stereo partly drawn) [(2S)-2-amino-N-(1-diphenoxyphosphorylethyl)-3-methyl-pentanamide],116 µM,> 500 µM
CC(NC(=O)[C@@H](N)Cc1ccccc1)P(=O)(Oc1ccccc1)Oc1ccccc1 (stereo partly drawn) [(2S)-2-amino-N-(1-diphenoxyphosphorylethyl)-3-phenyl-propanamide],< 1000 µM,> 500 µM
CC(C)C[C@H](N)C(=O)NC(C)P(=O)(Oc1ccccc1)Oc1ccccc1 (stereo partly drawn) [(2S)-2-amino-N-(1-diphenoxyphosphorylethyl)-4-methyl-pentanamide],> 500 µM,> 1000 µM
CC(NC(=O)[C@@H](N)CC(N)=O)P(=O)(Oc1ccccc1)Oc1ccccc1 (stereo partly drawn) [(2S)-2-amino-N-(1-diphenoxyphosphorylethyl)butanediamide],286 µM,
CC(NC(=O)[C@H](C)N)P(=O)(Oc1ccccc1)Oc1ccccc1 (stereo partly drawn) [(2S)-2-amino-N-(1-diphenoxyphosphorylethyl)propanamide],< 1000 µM,
CCC(C)[C@H](N)C(=O)NC(CC)P(=O)(Oc1ccccc1)Oc1ccccc1 (stereo partly drawn) [(2S)-2-amino-N-(1-diphenoxyphosphorylpropyl)-3-methyl-pentanamide],1000 µM,> 1000 µM
CCC(C)[C@H](N)C(=O)NC(c1cccc(C#N)c1)P(=O)(Oc1ccccc1)Oc1ccccc1 (stereo partly drawn) [(2S)-2-amino-N-[(3-cyanophenyl)-diphenoxyphosphoryl-methyl]-3-methyl-pentanamide],509 µM,> 125 µM
CCC(C)[C@H](N)C(=O)NC(c1ccc(C#N)cc1)P(=O)(Oc1ccccc1)Oc1ccccc1 (stereo partly drawn) [(2S)-2-amino-N-[(4-cyanophenyl)-diphenoxyphosphoryl-methyl]-3-methyl-pentanamide],150 µM,> 250 µM
N[C@@H](Cc1cnc[nH]1)C(=O)NC(C1CCCCC1)P(=O)(Oc1ccccc1)Oc1ccccc1 (stereo partly drawn) [(2S)-2-amino-N-[cyclohexyl(diphenoxyphosphoryl)methyl]-3-(1H-imidazol-4-yl)propanamide],241 µM,> 1000 µM
CCC(C)[C@H](N)C(=O)NC(C1CCCCC1)P(=O)(Oc1ccccc1)Oc1ccccc1 (stereo partly drawn) [(2S)-2-amino-N-[cyclohexyl(diphenoxyphosphoryl)methyl]-3-methyl-pentanamide],148 µM,> 1000 µM
CCC(C)[C@H](N)C(=O)NC(c1ccccc1)P(=O)(Oc1ccccc1)Oc1ccccc1 (stereo partly drawn) [(2S)-2-amino-N-[diphenoxyphosphoryl(phenyl)methyl]-3-methyl-pentanamide],18 µM,> 250 µM
O=C(CNC1CCCC1)NC(C1CCCCC1)P(=O)(Oc1ccccc1)Oc1ccccc1 (centres undefined) [N-[cyclohexyl(diphenoxyphosphoryl)methyl]-2-(cyclopentylamino)acetamide],8 µM,> 125 µM
